# Reference: PMC10891214, “Effects of food and ethnicity on the pharmacokinetics of venadaparib, a next-generation PARP inhibitor, in healthy Korean, Caucasian, and Chinese male subjects” (Investigational New Drugs, 2023)
# Assays:
# [1] = in vivo
# Protocol: (§1) Safety was assessed in all subjects who received the study drug at least once throughout the study based on adverse event (AE) monitoring, physical examinations, vital signs, 12-lead electrocardiograms (ECGs), and clinical laboratory tests.
# (§2) To support the evaluation of the relationship between concentration and QT/corrected QT (QTc) interval effects in the early stage of the clinical development of venadaparib, triplicate ECG tests were conducted in the middle of the study [22]. A triplicate ECG test was conducted in three Caucasian and five Chinese subjects after the protocol amendment. […] Fridericia’s corrected QT interval (QTcF) was collected, along with the existing ventricular rate, PR interval, QRS duration, QT interval, and QTcB. Triplicate ECGs were measured three times at intervals of 30 s to 2 min at each time point after at least 5 min of resting, and the median value of the three measurements was considered a representative value. QTcF and QTcB were calculated using the following population-derived correction equations: QTcF = QT/RR^0.33 and QTcB = QT/RR^0.5 [22].
# [2] = test system: PARP2; set-up: method as in PMID 36808277; details: cited from earlier work
# [3] = test system: PARP3; set-up: method as in PMID 36808277; details: cited from earlier work
# [4] = test system: PARP5; set-up: method as in PMID 36808277; details: cited from earlier work
# [5] = test system: PARP; set-up: method as in PMID 36808277, PMID 24162931, PMID 33657415; details: cited from earlier work
# [6] = test system: cancer cell lines with BRCA mutations; set-up: method as in PMID 36808277; details: cited from earlier work
# [7] = test system: patient-derived xenograft; set-up: method as in PMID 36808277; details: patient-derived xenograft mouse model; cited from earlier work
# [8] = set-up: method as in data on file (NCT03317743); details: ref data on file (NCT03317743), cited from earlier work
# [9] = test system: cytochrome P450 3A4; set-up: method as in data on file; details: in vitro phenotyping study; ref data on file; cited from earlier work
# [10] = Safety assessment (adverse events, vital signs, 12-lead ECGs) after a single administration of venadaparib 80 mg; details: for TEAEs: number of events / TEAEs: number of subjects: Koreans and Caucasians
# Protocol: as §1, §2
# [11] = Caucasian, fasted state (N = 12)
compound,measurement,setting,value
O=C(c1cc(Cc2n[nH]c(=O)c3ccccc23)ccc1F)N1CC(CNC2CC2)C1 [venadaparib],Infections and infestations: number of events,[1],1
same,Infections and infestations: number of subjects (percentage of subjects),[1],1 (8.3)
same,Oral herpes: number of events,[1]; po,1
same,Oral herpes: number of subjects (percentage of subjects),[1]; po,1 (8.3)
same,IC50 compared with those of olaparib,[2],similar
same,IC50 compared with those of olaparib,[3],higher
same,IC50 compared with those of olaparib,[4],higher
same,"Activity of trapping PARP, relative to talazoparib",[5],comparable
same,"Antitumor potency, fold higher than that of olaparib",[6],40–440 fold
same,Tumor growth inhibition rate,[7],131.0–135.2%
same,Mean elimination half-life (t1/2),"[8]; Korean patients with advanced solid tumors, 2–240 mg/day",7 to 13 h
same,Safety and tolerability of multiple three-week administrations,"[8]; dose range 2–240 mg/day, Korean patients",safe and well-tolerated
same,Relationship of systemic exposure to dose,[8]; dose range 2–240 mg/day,dose-proportional
same,Enzyme primarily metabolizing the drug,[9],cytochrome P450 3A4
same,Changes in vital signs or 12-lead ECGs,[10]; 80 mg single dose,No clinically significant changes
same,Serious AEs,"[10]; 80 mg single dose, all groups",No serious AEs were observed
same,Severity of TEAEs,"[10]; 80 mg single dose, except contact dermatitis (moderate) in one subject, fed state",mild
same,"Effect of plasma concentrations on QTcF and QTcB values, including changes from the baseline","[10]; 80 mg single dose, triplicate ECG subset",did not prolong
same,Safety and tolerability of a single dose,"[10]; 80 mg, fasted and fed states, healthy subjects",safe and well-tolerated
same,Blood bilirubin increased: number of events,[10]; [11],1
same,Chalazion: number of events,[10]; [11],1
same,Chalazion: number of subjects (percentage of subjects),[10]; [11],1 (8.3)
same,Eye disorders: number of events,[10]; [11],1
same,Eye disorders: number of subjects (percentage of subjects),[10]; [11],1 (8.3)
same,Gastrointestinal disorders: number of events,[10]; [11],1
same,Gastrointestinal disorders: number of subjects (percentage of subjects),[10]; [11],1 (8.3)
same,Hyperuricaemia: number of events,[10]; [11],1
same,Investigations: number of events,[10]; [11],1
same,Metabolism and nutrition disorders: number of events,[10]; [11],1
same,Metabolism and nutrition disorders: number of subjects (percentage of subjects),[10]; [11],1 (8.3)
same,Nausea: number of events,[10]; [11],1
same,Nausea: number of subjects (percentage of subjects),[10]; [11],1 (8.3)
same,Blood and lymphatic system disorders: number of events,"[10]; Caucasian, fed state (N = 12)",1
same,Blood and lymphatic system disorders: number of subjects (percentage of subjects),"[10]; Caucasian, fed state (N = 12)",1 (8.3)
same,Blood bilirubin increased: number of events,"[10]; Caucasian, fed state (N = 12)",1
same,Blood bilirubin increased: number of subjects (percentage of subjects),"[10]; Caucasian, fed state (N = 12)",1 (8.3)
same,Decreased appetite: number of events,"[10]; Caucasian, fed state (N = 12)",1
same,Decreased appetite: number of subjects (percentage of subjects),"[10]; Caucasian, fed state (N = 12)",1 (8.3)
same,Dermatitis contact: number of events,"[10]; Caucasian, fed state (N = 12)",1
same,Dermatitis contact: number of subjects (percentage of subjects),"[10]; Caucasian, fed state (N = 12)",1 (8.3)
same,Eosinophilia: number of events,"[10]; Caucasian, fed state (N = 12)",1
same,Eosinophilia: number of subjects (percentage of subjects),"[10]; Caucasian, fed state (N = 12)",1 (8.3)
same,Epigastric discomfort: number of events,"[10]; Caucasian, fed state (N = 12)",1
same,Epigastric discomfort: number of subjects (percentage of subjects),"[10]; Caucasian, fed state (N = 12)",1 (8.3)
same,Gastrointestinal disorders: number of events,"[10]; Caucasian, fed state (N = 12)",1
same,General disorders and administration site conditions: number of events,"[10]; Caucasian, fed state (N = 12)",1
same,General disorders and administration site conditions: number of subjects (percentage of subjects),"[10]; Caucasian, fed state (N = 12)",1 (8.3)
same,Headache: number of events,"[10]; Caucasian, fed state (N = 12)",1
same,Headache: number of subjects (percentage of subjects),"[10]; Caucasian, fed state (N = 12)",1 (8.3)
same,Hyperuricaemia: number of events,"[10]; Caucasian, fed state (N = 12)",1
same,Hyperuricaemia: number of subjects (percentage of subjects),"[10]; Caucasian, fed state (N = 12)",1 (8.3)
same,Investigations: number of events,"[10]; Caucasian, fed state (N = 12)",1
same,Investigations: number of subjects (percentage of subjects),"[10]; Caucasian, fed state (N = 12)",1 (8.3)
same,Lethargy: number of events,"[10]; Caucasian, fed state (N = 12)",1
same,Lethargy: number of subjects (percentage of subjects),"[10]; Caucasian, fed state (N = 12)",1 (8.3)
same,Metabolism and nutrition disorders: number of events,"[10]; Caucasian, fed state (N = 12)",2
same,Metabolism and nutrition disorders: number of subjects (percentage of subjects),"[10]; Caucasian, fed state (N = 12)",2 (16.7)
same,Nervous system disorders: number of events,"[10]; Caucasian, fed state (N = 12)",2
same,Nervous system disorders: number of subjects (percentage of subjects),"[10]; Caucasian, fed state (N = 12)",2 (16.7)
same,Skin and subcutaneous tissue disorders: number of events,"[10]; Caucasian, fed state (N = 12)",1
same,Skin and subcutaneous tissue disorders: number of subjects (percentage of subjects),"[10]; Caucasian, fed state (N = 12)",1 (8.3)
same,Thirst: number of events,"[10]; Caucasian, fed state (N = 12)",1
same,Thirst: number of subjects (percentage of subjects),"[10]; Caucasian, fed state (N = 12)",1 (8.3)
same,Total TEAEs: number of events,"[10]; Caucasian, fed state (N = 12)",9
same,Total TEAEs: number of subjects (percentage of subjects),"[10]; Caucasian, fed state (N = 12)",7 (58.3)
same,Decreased appetite: number of events,"[10]; Chinese, fasted state (N = 12)",1
same,Decreased appetite: number of subjects (percentage of subjects),"[10]; Chinese, fasted state (N = 12)",1 (8.3)
same,Dyspepsia: number of events,"[10]; Chinese, fasted state (N = 12)",1
same,Dyspepsia: number of subjects (percentage of subjects),"[10]; Chinese, fasted state (N = 12)",1 (8.3)
same,Gastrointestinal disorders: number of events,"[10]; Chinese, fasted state (N = 12)",1
same,Gastrointestinal disorders: number of subjects (percentage of subjects),"[10]; Chinese, fasted state (N = 12)",1 (8.3)
same,Hypertriglyceridaemia: number of events,"[10]; Chinese, fasted state (N = 12)",1
same,Hypertriglyceridaemia: number of subjects (percentage of subjects),"[10]; Chinese, fasted state (N = 12)",1 (8.3)
same,Metabolism and nutrition disorders: number of events,"[10]; Chinese, fasted state (N = 12)",2
same,Metabolism and nutrition disorders: number of subjects (percentage of subjects),"[10]; Chinese, fasted state (N = 12)",2 (16.7)
same,Abdominal pain: number of events,"[10]; Korean, fasted state (N = 12)",1
same,Abdominal pain: number of subjects (percentage of subjects),"[10]; Korean, fasted state (N = 12)",1 (8.3)
same,Dyspepsia: number of events,"[10]; Korean, fasted state (N = 12)",1
same,Dyspepsia: number of subjects (percentage of subjects),"[10]; Korean, fasted state (N = 12)",1 (8.3)
same,Gastrointestinal disorders: number of events,"[10]; Korean, fasted state (N = 12)",4
same,Gastrointestinal disorders: number of subjects (percentage of subjects),"[10]; Korean, fasted state (N = 12)",3 (25.0)
same,Gingival pain: number of events,"[10]; Korean, fasted state (N = 12)",1
same,Gingival pain: number of subjects (percentage of subjects),"[10]; Korean, fasted state (N = 12)",1 (8.3)
same,Nausea: number of events,"[10]; Korean, fasted state (N = 12)",1
same,Nausea: number of subjects (percentage of subjects),"[10]; Korean, fasted state (N = 12)",1 (8.3)
same,Decreased appetite: number of events,"[10]; Korean, fed state (N = 13)",3
same,Decreased appetite: number of subjects (percentage of subjects),"[10]; Korean, fed state (N = 13)",3 (23.1)
same,Dyspepsia: number of events,"[10]; Korean, fed state (N = 13)",2
same,Dyspepsia: number of subjects (percentage of subjects),"[10]; Korean, fed state (N = 13)",1 (7.7)
same,Eye disorders: number of events,"[10]; Korean, fed state (N = 13)",3
same,Eye disorders: number of subjects (percentage of subjects),"[10]; Korean, fed state (N = 13)",1 (7.7)
same,Eye pain: number of events,"[10]; Korean, fed state (N = 13)",1
same,Eye pain: number of subjects (percentage of subjects),"[10]; Korean, fed state (N = 13)",1 (7.7)
same,Gastrointestinal disorders: number of events,"[10]; Korean, fed state (N = 13)",7
same,Gastrointestinal disorders: number of subjects (percentage of subjects),"[10]; Korean, fed state (N = 13)",5 (38.5)
same,Hyperaemia: number of events,"[10]; Korean, fed state (N = 13)",1
same,Hyperaemia: number of subjects (percentage of subjects),"[10]; Korean, fed state (N = 13)",1 (7.7)
same,Lacrimation increased: number of events,"[10]; Korean, fed state (N = 13)",1
same,Lacrimation increased: number of subjects (percentage of subjects),"[10]; Korean, fed state (N = 13)",1 (7.7)
same,Metabolism and nutrition disorders: number of events,"[10]; Korean, fed state (N = 13)",3
same,Metabolism and nutrition disorders: number of subjects (percentage of subjects),"[10]; Korean, fed state (N = 13)",3 (23.1)
same,Musculoskeletal and connective tissue disorders: number of events,"[10]; Korean, fed state (N = 13)",1
same,Musculoskeletal and connective tissue disorders: number of subjects (percentage of subjects),"[10]; Korean, fed state (N = 13)",1 (7.7)
same,Nausea: number of events,"[10]; Korean, fed state (N = 13)",5
same,Nausea: number of subjects (percentage of subjects),"[10]; Korean, fed state (N = 13)",5 (38.5)
same,"Respiratory, thoracic, and mediastinal disorders: number of events","[10]; Korean, fed state (N = 13)",1
same,"Respiratory, thoracic, and mediastinal disorders: number of subjects (percentage of subjects)","[10]; Korean, fed state (N = 13)",1 (7.7)
same,Rhabdomyolysis: number of events,"[10]; Korean, fed state (N = 13)",1
same,Rhabdomyolysis: number of subjects (percentage of subjects),"[10]; Korean, fed state (N = 13)",1 (7.7)
same,Rhinorrhoea: number of events,"[10]; Korean, fed state (N = 13)",1
same,Rhinorrhoea: number of subjects (percentage of subjects),"[10]; Korean, fed state (N = 13)",1 (7.7)
same,Total TEAEs: number of events,"[10]; Korean, fed state (N = 13)",16
same,Total TEAEs: number of subjects (percentage of subjects),"[10]; Korean, fed state (N = 13)",6 (46.2)
same,Vascular disorders: number of events,"[10]; Korean, fed state (N = 13)",1
same,Vascular disorders: number of subjects (percentage of subjects),"[10]; Korean, fed state (N = 13)",1 (7.7)
same,Vision blurred: number of events,"[10]; Korean, fed state (N = 13)",1
same,Vision blurred: number of subjects (percentage of subjects),"[10]; Korean, fed state (N = 13)",1 (7.7)
same,TEAEs: number of events,"[10]; fasted state, 80 mg",nine
same,TEAEs: number of subjects,"[10]; fasted state, 80 mg",seven
same,TEAEs: number of events,"[10]; fed state, 80 mg",25
same,TEAEs: number of subjects,"[10]; fed state, 80 mg",13
